In article PMC9127186, “Molecular Basis Underlying Hepatobiliary and Renal Excretion of Phenolic Acids of Salvia miltiorrhiza Roots (Danshen)” (Frontiers in Pharmacology, 2022):

Experiments:
OATP1B3 = target: T1, OATP1B3 (Homo sapiens, UniProt Q9NPD5); assay: Cellular transport assay, HEK-293 cells expressing human OATP1B3; details: for TransportTC/TransportMC ratio (net transport ratio): 10 min; for K m / V max: 5 min incubation, concentrations in Table 1
T1 sequence (Q9NPD5 1-702): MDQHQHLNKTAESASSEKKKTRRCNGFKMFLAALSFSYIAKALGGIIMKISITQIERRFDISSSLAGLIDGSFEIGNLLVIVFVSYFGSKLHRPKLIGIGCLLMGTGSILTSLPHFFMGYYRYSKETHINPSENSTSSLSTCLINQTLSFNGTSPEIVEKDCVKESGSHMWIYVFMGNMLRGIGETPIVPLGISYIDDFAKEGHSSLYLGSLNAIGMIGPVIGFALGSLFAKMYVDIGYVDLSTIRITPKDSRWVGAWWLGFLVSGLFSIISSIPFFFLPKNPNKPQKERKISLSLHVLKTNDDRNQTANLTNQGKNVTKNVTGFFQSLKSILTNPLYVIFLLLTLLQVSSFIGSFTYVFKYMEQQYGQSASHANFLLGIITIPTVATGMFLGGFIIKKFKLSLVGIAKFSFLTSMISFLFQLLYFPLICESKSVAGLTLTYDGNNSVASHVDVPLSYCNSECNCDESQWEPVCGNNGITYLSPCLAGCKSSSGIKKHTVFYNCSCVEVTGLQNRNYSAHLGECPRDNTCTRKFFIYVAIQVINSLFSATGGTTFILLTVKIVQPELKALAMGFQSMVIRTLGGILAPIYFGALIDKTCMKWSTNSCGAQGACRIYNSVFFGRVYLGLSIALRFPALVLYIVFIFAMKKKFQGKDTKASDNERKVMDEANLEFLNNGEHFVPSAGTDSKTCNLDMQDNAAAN

human OATP1B1 = target: T2, human OATP1B1 (Homo sapiens, UniProt Q9Y6L6); assay: Cellular transport assay, HEK-293 cells expressing human OATP1B1; details: for TransportTC/TransportMC ratio (net transport ratio): 10 min
T2 sequence (Q9Y6L6 1-691): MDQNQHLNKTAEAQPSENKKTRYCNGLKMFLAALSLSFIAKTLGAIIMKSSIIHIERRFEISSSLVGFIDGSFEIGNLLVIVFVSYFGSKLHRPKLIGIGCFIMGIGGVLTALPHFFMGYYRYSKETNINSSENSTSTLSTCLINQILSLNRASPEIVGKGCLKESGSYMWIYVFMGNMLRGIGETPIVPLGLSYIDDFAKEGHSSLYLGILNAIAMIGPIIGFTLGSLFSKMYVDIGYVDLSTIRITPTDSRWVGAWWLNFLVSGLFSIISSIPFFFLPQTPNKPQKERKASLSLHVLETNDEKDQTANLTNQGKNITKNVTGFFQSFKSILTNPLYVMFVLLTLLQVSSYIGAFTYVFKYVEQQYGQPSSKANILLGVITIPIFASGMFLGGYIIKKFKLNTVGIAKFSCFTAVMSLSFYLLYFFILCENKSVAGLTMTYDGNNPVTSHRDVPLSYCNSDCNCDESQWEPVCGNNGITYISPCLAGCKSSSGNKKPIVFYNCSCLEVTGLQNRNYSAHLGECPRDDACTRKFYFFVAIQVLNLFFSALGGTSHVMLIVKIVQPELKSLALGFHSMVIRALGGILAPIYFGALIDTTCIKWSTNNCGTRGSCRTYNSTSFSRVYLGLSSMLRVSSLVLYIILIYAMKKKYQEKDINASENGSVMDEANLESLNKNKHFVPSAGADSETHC
Outline: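 First, HEK-293 cells received either the expression plasmid or empty vector by lipofection; 48 h later they were incubated with test compound for 5 min.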

rat Oatp1b2 = target: T3, rat Oatp1b2 (Rattus norvegicus, UniProt Q9QZX8); assay: Cellular transport assay, HEK-293 cells expressing rat Oatp1b2; details: for TransportTC/TransportMC ratio (net transport ratio): 10 min
T3 sequence (Q9QZX8 1-687): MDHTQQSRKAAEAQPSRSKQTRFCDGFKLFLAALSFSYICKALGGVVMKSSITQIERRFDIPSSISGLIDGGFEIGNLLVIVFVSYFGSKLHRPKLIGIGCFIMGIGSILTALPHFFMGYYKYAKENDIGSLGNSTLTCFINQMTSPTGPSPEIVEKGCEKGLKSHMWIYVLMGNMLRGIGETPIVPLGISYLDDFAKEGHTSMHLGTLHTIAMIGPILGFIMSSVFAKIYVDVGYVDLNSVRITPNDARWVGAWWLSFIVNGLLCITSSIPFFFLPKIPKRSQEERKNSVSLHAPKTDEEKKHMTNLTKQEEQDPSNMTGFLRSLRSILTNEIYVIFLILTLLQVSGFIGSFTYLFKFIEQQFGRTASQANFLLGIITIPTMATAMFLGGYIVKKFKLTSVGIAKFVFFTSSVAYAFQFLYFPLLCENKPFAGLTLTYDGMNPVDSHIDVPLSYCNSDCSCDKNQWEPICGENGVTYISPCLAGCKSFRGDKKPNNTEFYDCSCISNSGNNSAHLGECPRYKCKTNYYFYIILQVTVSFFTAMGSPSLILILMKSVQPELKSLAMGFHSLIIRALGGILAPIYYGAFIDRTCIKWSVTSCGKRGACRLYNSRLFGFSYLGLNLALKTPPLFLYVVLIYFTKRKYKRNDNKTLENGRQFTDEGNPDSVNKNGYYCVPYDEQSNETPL

[1] = Danshen phenolic acid at 100 μM final concentration, human OATP1B3-transfected vs mock cells
[2] = human hepatic sinusoidal uptake OATP1B3
[3] = human, HEK-293 cells expressing human OATP1B3 (vs mock cells)
[4] = Danshen phenolic acid at 100 μM final concentration, human OATP1B1-transfected vs mock cells
[5] = human hepatic sinusoidal uptake OATP1B1, 5 min incubation, concentrations in Table 1
[6] = Danshen phenolic acid at 100 μM final concentration, rat Oatp1b2-transfected vs mock cells
[7] = rat hepatic sinusoidal uptake Oatp1b2, 5 min incubation, concentrations in Table 1

Compound | substrate of human OATP1B3 (OATP1B3) | TransportTC/TransportMC ratio (net transport ratio) (OATP1B3; [1]) | K m (OATP1B3; [2]) [µM] | V max (OATP1B3; [2]) [pmol/min/mg protein] | microsomal CLint (OATP1B3; [3]) [µL/min/mg] | substrate of human OATP1B1 (human OATP1B1) | TransportTC/TransportMC ratio (net transport ratio) (human OATP1B1; [4]) | microsomal CLint (human OATP1B1; human) [µL/min/mg] | K m (human OATP1B1; [5]) [µM] | substrate of rat Oatp1b2 (rat Oatp1b2) | TransportTC/TransportMC ratio (net transport ratio) (rat Oatp1b2; [6]) | microsomal CLint (rat Oatp1b2; rat) [µL/min/mg] | K m (rat Oatp1b2; [7]) [µM] | TransportTC/TransportMC ratio (net transport ratio) (OATP1B3; human, 100 μM) | TransportTC/TransportMC ratio (net transport ratio) (human OATP1B1; human, 100 μM) | TransportTC/TransportMC ratio (net transport ratio) (rat Oatp1b2; rat, 100 μM) | microsomal CLint (rat Oatp1b2; rat, other cell line) [µL/min/mg] | further results
O=C(/C=C/c1ccc(O)c2c1[C@H](C(=O)O)[C@@H](c1ccc(O)c(O)c1)O2)O[C@H](Cc1ccc(O)c(O)c1)C(=O)O [Lithospermic acid, lithospermic acid] | substrates | 8.02 ± 0.52 | 182 ± 26 | 9.59 ± 0.51 | 0.05 | substrates | 3.99 ± 0.24 | 0.06 | 428 ± 67 | substrates | 11.6 ± 0.7 | 0.41 | 91.3 ± 10.6 |  |  |  |  | 
O=C(O)c1ccc(O)c(O)c1 [Protocatechuic acid, protocatechuic acid] |  | 0.75 ± 0.09 |  |  |  |  | 0.83 ± 0.14 |  |  | neither protocatechuic acid nor tanshinol was a substrate | 1.32 ± 0.45 |  |  |  |  |  |  | 
O=C(/C=C/c1ccc(O)c(O)c1)O[C@H](Cc1ccc(O)c(O)c1)C(=O)O [Rosmarinic acid, rosmarinic acid] | substrates |  |  |  |  | substrates |  |  |  | substrates |  |  | 2049 ± 418 | 7.28 ± 0.58 | 4.00 ± 0.43 | 17.0 ± 2.8 | 0.08 | microsomal CLint (OATP1B3; human, other cell line): 0.09 µL/min/mg; microsomal CLint (human OATP1B1; human, other cell line): 0.07 µL/min/mg
O=C(/C=C/c1ccc(O)c(O)c1/C=C/c1ccc(O)c(O)c1)O[C@H](Cc1ccc(O)c(O)c1)C(=O)O [Salvianolic acid A, salvianolic acid A] | not a substrate |  |  |  |  | not a substrate |  |  |  | substrate |  |  | 50.5 ± 12.8 | 1.02 ± 0.31 | 1.21 ± 0.33 | 7.52 ± 1.31 | 0.38 | 
O=C(O)Cc1c(/C=C/C(=O)O[C@H](Cc2ccc(O)c(O)c2)C(=O)O)ccc(O)c1O [Salvianolic acid D, salvianolic acid D] | substrates | 5.83 ± 0.49 | 570 ± 79 | 98.5 ± 4.8 | 0.17 | substrates | 5.38 ± 0.83 | 0.22 | 403 ± 85 | substrates | 16.0 ± 0.8 | 1.23 | 464 ± 62 |  |  |  |  | 
salvianolic acid B | substrates | 16.2 ± 0.6 | 13.0 ± 1.6 | 11.0 ± 0.4 |  | substrates | 5.16 ± 1.30 |  | 58.9 ± 6.2 | substrates | 30.0 ± 0.6 |  | 20.5 ± 1.9 |  |  |  |  | CLint (OATP1B3; [2]): 0.85 μL/min/mg protein; CLint (human OATP1B1; human hepatic sinusoidal uptake OATP1B1): 0.46 μL/min/mg protein; V max (human OATP1B1; [5]): 28.1 ± 1.2 pmol/min/mg protein; CLint (rat Oatp1b2; rat hepatic sinusoidal uptake Oatp1b2): 0.87 μL/min/mg protein; V max (rat Oatp1b2; [7]): 17.7 ± 0.5 pmol/min/mg protein
